What was measured:
Assay type in all cases: in vivo
Scirpus juncoides [1] = experiment: Herbicidal effect on paddy field weeds of post-emergence stage (Post), Test Example 2; settings: one-leaf stage, 1000 g/ha as active ingredient, examined after 21 days
Summary of the method: (§1)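 Post-emergence paddy test: formulated compound added to 5 cm standing water at 1000 g/ha a.i. when weeds reached one-leaf stage in clay loam pots in greenhouse. Growth inhibition rated 21 days later versus untreated control on a 0 (0%) to 5 (100%) scale.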

Echinochloa crus-galli = experiment: as above; settings: one-leaf stage, 1000 g/ha as active ingredient, examined after 21 days
Summary of the method: as §1

Lindernia procumbens [2] = experiment: as above; settings: one-leaf stage, 1000 g/ha as active ingredient, examined after 21 days
Summary of the method: as §1

Scirpus juncoides [3] = experiment: Herbicidal efficacy on paddy field weeds of pre-emergence stage (Pre), Test Example 1; settings: 1000 g/ha as active ingredient, examined after 21 days
Summary of the method: (§2)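 Pre-emergence paddy test: 1000 g/ha active ingredient, formulated and water-diluted, dropped onto 5 cm floodwater one day after sowing both weeds in clay loam. After 21 days in greenhouse, inhibition relative to untreated control rated on 0 (0%) to 5 (100%) scale.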

Lindernia procumbens [4] = experiment: as above; settings: 1000 g/ha as active ingredient, examined after 21 days
Summary of the method: as §2

| SMILES | Scirpus juncoides post (herbicidal effect) (Scirpus juncoides [1]) | Echinochloa crus-galli post (herbicidal effect) (Echinochloa crus-galli) | Lindernia procumbens post (herbicidal effect) (Lindernia procumbens [2]) | Scirpus juncoides pre (herbicidal effect) (Scirpus juncoides [3]) | Lindernia procumbens pre (herbicidal effect) (Lindernia procumbens [4]) |
| --- | --- | --- | --- | --- | --- |
| Cc1ccccc1C1CCN(Cc2ccccc2NS(=O)(=O)C(F)(F)F)C(=O)O1 (stereo not shown) [Compound 1-283] | 4 (90%-99% herbicidal effect, phytotoxicity) | 4 (90%-99% herbicidal effect, phytotoxicity) | 5 (100% herbicidal effect, phytotoxicity) | 5 (100% herbicidal effect, phytotoxicity) | 5 (100% herbicidal effect, phytotoxicity) |
| CC(C)COC(=O)N(c1ccccc1CN1CC(C)(C)COC1=S)S(=O)(=O)C(F)(F)F [Compound 1-39] | 4 (90%-99% herbicidal effect, phytotoxicity) | 4 (90%-99% herbicidal effect, phytotoxicity) | 4 (90%-99% herbicidal effect, phytotoxicity) | 4 (90%-99% herbicidal effect, phytotoxicity) | 4 (90%-99% herbicidal effect, phytotoxicity) |
| CC(C)(C)C(=O)OCN(c1ccccc1CN1CCC(C)(C2CC2)OC1=O)S(=O)(=O)C(F)(F)F (stereo not shown) [Compound 1-136] | 4 (90%-99% herbicidal effect, phytotoxicity) | 4 (90%-99% herbicidal effect, phytotoxicity) | 4 (90%-99% herbicidal effect, phytotoxicity) | 4 (90%-99% herbicidal effect, phytotoxicity) | 4 (90%-99% herbicidal effect, phytotoxicity) |
| CCCCOC(=O)N(c1ccccc1CN1CCCCOC1=O)S(=O)(=O)C(F)(F)F [2-5] | 4 (90%-99% herbicidal effect, phytotoxicity) | 4 (90%-99% herbicidal effect, phytotoxicity) | 4 (90%-99% herbicidal effect, phytotoxicity) | 4 (90%-99% herbicidal effect, phytotoxicity) | 4 (90%-99% herbicidal effect, phytotoxicity) |
| CC(C)COC(=O)N(c1ccccc1CN1CCC(c2ccccc2)(C2CCC2)OC1=O)S(=O)(=O)C(F)(F)F (stereo not shown) [Compound 1-211] | 4 (90%-99% herbicidal effect, phytotoxicity) | 4 (90%-99% herbicidal effect, phytotoxicity) | 4 (90%-99% herbicidal effect, phytotoxicity) | 4 (90%-99% herbicidal effect, phytotoxicity) | 4 (90%-99% herbicidal effect, phytotoxicity) |
| COC(=O)N(c1ccccc1CN1CCC(C(F)(F)F)(C(F)(F)F)OC1=O)S(=O)(=O)C(F)(F)F [Compound 1-339] | 4 (90%-99% herbicidal effect, phytotoxicity) | 4 (90%-99% herbicidal effect, phytotoxicity) | 5 (100% herbicidal effect, phytotoxicity) | 4 (90%-99% herbicidal effect, phytotoxicity) | 5 (100% herbicidal effect, phytotoxicity) |
| CCOC(=O)N(c1ccccc1CN1CCC(c2ccccc2)(C2CCC2)OC1=O)S(=O)(=O)C(F)(F)F (stereo not shown) [Compound 1-208] | 4 (90%-99% herbicidal effect, phytotoxicity) | 4 (90%-99% herbicidal effect, phytotoxicity) | 4 (90%-99% herbicidal effect, phytotoxicity) | 4 (90%-99% herbicidal effect, phytotoxicity) | 4 (90%-99% herbicidal effect, phytotoxicity) |
| CC1(C)CCN(Cc2ccccc2NS(=O)(=O)C(F)(F)F)C(=O)O1 [Compound 1-45] | 4 (90%-99% herbicidal effect, phytotoxicity) | 4 (90%-99% herbicidal effect, phytotoxicity) | 4 (90%-99% herbicidal effect, phytotoxicity) | 4 (90%-99% herbicidal effect, phytotoxicity) | 4 (90%-99% herbicidal effect, phytotoxicity) |
| O=C1OC2(CCCC2)CCN1Cc1ccccc1NS(=O)(=O)C(F)(F)F [Compound 1-137] | 4 (90%-99% herbicidal effect, phytotoxicity) | 4 (90%-99% herbicidal effect, phytotoxicity) | 4 (90%-99% herbicidal effect, phytotoxicity) | 4 (90%-99% herbicidal effect, phytotoxicity) | 4 (90%-99% herbicidal effect, phytotoxicity) |
| CCOC(=O)N(c1ccccc1CN1CCC(C)(c2c(F)cccc2F)OC1=O)S(=O)(=O)C(F)(F)F (racemic) [Compound 1-441] | 4 (90%-99% herbicidal effect, phytotoxicity) | 5 (100% herbicidal effect, phytotoxicity) | 5 (100% herbicidal effect, phytotoxicity) | 5 (100% herbicidal effect, phytotoxicity) | 5 (100% herbicidal effect, phytotoxicity) |
| CCOC(=O)N(c1ccccc1CN1CCC(c2ccccc2)(C(F)(F)F)OC1=O)S(=O)(=O)C(F)(F)F (stereo not shown) [Compound 1-230] | 4 (90%-99% herbicidal effect, phytotoxicity) | 4 (90%-99% herbicidal effect, phytotoxicity) | 5 (100% herbicidal effect, phytotoxicity) | 5 (100% herbicidal effect, phytotoxicity) | 5 (100% herbicidal effect, phytotoxicity) |
| CCOC(=O)N(c1ccccc1CN1CCC(C)(C)OC1=O)S(=O)(=O)C(F)(F)F [Compound 1-47] | 4 (90%-99% herbicidal effect, phytotoxicity) | 4 (90%-99% herbicidal effect, phytotoxicity) | 4 (90%-99% herbicidal effect, phytotoxicity) | 4 (90%-99% herbicidal effect, phytotoxicity) | 4 (90%-99% herbicidal effect, phytotoxicity) |
| CCC1(C)CCN(Cc2ccccc2N(C(=O)OCC(C)(C)C)S(=O)(=O)C(F)(F)F)C(=O)O1 (stereo not shown) [Compound 1-75] | 4 (90%-99% herbicidal effect, phytotoxicity) | 4 (90%-99% herbicidal effect, phytotoxicity) | 4 (90%-99% herbicidal effect, phytotoxicity) | 4 (90%-99% herbicidal effect, phytotoxicity) | 4 (90%-99% herbicidal effect, phytotoxicity) |
| CCOC(=O)N(c1ccccc1CN1CCCCOC1=O)S(=O)(=O)C(F)(F)F [2-3] | 4 (90%-99% herbicidal effect, phytotoxicity) | 4 (90%-99% herbicidal effect, phytotoxicity) | 4 (90%-99% herbicidal effect, phytotoxicity) | 4 (90%-99% herbicidal effect, phytotoxicity) | 4 (90%-99% herbicidal effect, phytotoxicity) |
| CCOC(=O)N(c1ccccc1CN1CCC(c2c(C)cccc2C)OC1=O)S(=O)(=O)C(F)(F)F (stereo not shown) [Compound 1-362] | 4 (90%-99% herbicidal effect, phytotoxicity) | 4 (90%-99% herbicidal effect, phytotoxicity) | 5 (100% herbicidal effect, phytotoxicity) | 4 (90%-99% herbicidal effect, phytotoxicity) | 5 (100% herbicidal effect, phytotoxicity) |
| O=C1OCCCCN1Cc1ccccc1NS(=O)(=O)C(F)(F)F [2-1] | 4 (90%-99% herbicidal effect, phytotoxicity) | 4 (90%-99% herbicidal effect, phytotoxicity) | 4 (90%-99% herbicidal effect, phytotoxicity) | 4 (90%-99% herbicidal effect, phytotoxicity) | 4 (90%-99% herbicidal effect, phytotoxicity) |
| CCOC(=O)N(c1ccccc1CN1CCC(C)COC1=O)S(=O)(=O)C(F)(F)F (racemic) [2-25] | 4 (90%-99% herbicidal effect, phytotoxicity) | 4 (90%-99% herbicidal effect, phytotoxicity) | 4 (90%-99% herbicidal effect, phytotoxicity) | 4 (90%-99% herbicidal effect, phytotoxicity) | 4 (90%-99% herbicidal effect, phytotoxicity) |

Reference: US8048825B2, “Haloalkylsulfonanilide derivatives or salt thereof, herbicide comprising the derivatives as active ingredient, and use of the herbicide” (Nihon Nohyaku Co., Ltd., priority 2006, dated 2011)
